{"source": "ChEMBL document CHEMBL5512652", "about": "“Mono-quinoxaline-induced DNA structural alteration leads to ZBP1/RIP3/MLKL-driven necroptosis in cancer cells” (Eur J Med Chem, 2024)", "key": {"HeLa [1]": {"system": "HeLa", "test": "Induction of apoptosis in human HeLa cells assessed as late apoptotic cells at 6 uM incubated for 24 hrs by FITC/Annexin V based FACS analysis (reference value: 1.7%)", "type": "functional"}, "HeLa [2]": {"system": "HeLa", "test": "Induction of mitochondrial depolarization in human HeLa cells incubated for 24 hrs by JC-1 staining based confocal microscopy imaging method", "type": "functional, cell-based"}, "HCT-116 [3]": {"system": "HCT-116", "test": "Induction of apoptosis in human HCT-116 cells assessed as early apoptotic cells at 4 uM incubated for 24 hrs by FITC/Annexin V based FACS analysis (reference value: 5.07%)", "type": "functional"}, "HeLa [4]": {"system": "HeLa", "test": "Inhibition of colony formation in human HeLa cells at 5 uM incubated for 10 days by crystal violet staining based assay", "type": "functional, cell-based", "details": "time 10.0 day"}, "HCT-116 [5]": {"system": "HCT-116", "test": "Induction of apoptosis in human HCT-116 cells assessed as necrotic cells at 4 uM incubated for 24 hrs by FITC/Annexin V based FACS analysis (reference value: 4.9%)", "type": "functional"}, "HCT-116 [6]": {"system": "HCT-116", "test": "Induction of necroptosis in RIP3-silenced/5-AD sensitized human HCT-116 cells assessed as increase in p-MLKL level at 3 uM preincubated with 5-AD for 3 days followed by compound addition for 24 hrs", "type": "functional, cell-based"}, "HT-29 [7]": {"system": "HT-29", "test": "Induction of apoptosis in human HT-29 cells assessed as necrotic cells at 3 uM incubated for 24 hrs by FITC/Annexin V based FACS analysis (reference value: 4.9%)", "type": "functional"}, "HT-29 [8]": {"system": "HT-29", "test": "Induction of apoptosis in human HT-29 cells assessed as early apoptotic cells at 3 uM incubated for 24 hrs by FITC/Annexin V based FACS analysis (reference value: 2.6%)", "type": "functional"}, "Calf thymus DNA [9]": {"system": "Calf thymus DNA", "test": "Binding affinity to calf thymus DNA assessed as change in B-DNA structure at 275 nm by circular dichroism method", "type": "nucleic-acid assay", "details": "Bos taurus"}, "HeLa [10]": {"system": "HeLa", "test": "Induction of necroptosis in RIP3-silenced/5-AD sensitized human HeLa cells assessed as increase in p-RIP3 level at 3 uM preincubated with 5-AD for 3 days followed by compound addition for 24 hrs", "type": "functional, cell-based"}, "GC rich DNA [11]": {"system": "GC rich DNA", "test": "Binding affinity to poly GC DNA (unknown origin) by circular dichroism method", "type": "nucleic-acid assay"}, "HT-29 [12]": {"system": "HT-29", "test": "Induction of DNA damage in human HT-29 cells assessed as strand break at 6 uM incubated for 24 hrs by comet assay", "type": "functional, cell-based"}, "HCT-116 [13]": {"system": "HCT-116", "test": "Induction of DNA damage in human HCT-116 cells assessed as increase in gammaH2AX expression at 1 to 2 uM incubated for 24 hrs by immunoblotting analysis", "type": "functional, cell-based", "details": "dose 1-2 µM"}, "HT-29 [14]": {"system": "HT-29", "test": "Induction of necroptosis in human HT-29 cells assessed as increase in p-RIP3 expression at 3 to 8 uM pretreated with Z-VAD for 30 mins followed by compound addition and measured after 24 hrs by immunoblotting assay", "type": "functional, cell-based", "details": "dose 3-8 µM"}, "HCT-116 [15]": {"system": "HCT-116", "test": "Induction of apoptosis in human HCT-116 cells assessed as late apoptotic cells at 2 uM incubated for 24 hrs by FITC/Annexin V based FACS analysis (reference value: 2.8%)", "type": "functional"}, "HeLa [16]": {"system": "HeLa", "test": "Induction of apoptosis in human HeLa cells assessed as early apoptotic cells at 4 uM incubated for 24 hrs by FITC/Annexin V based FACS analysis (reference value: 2.7%)", "type": "functional"}, "HCT-116 [17]": {"system": "HCT-116", "test": "Induction of apoptosis in human HCT-116 cells assessed as necrotic cells at 1 uM incubated for 24 hrs by FITC/Annexin V based FACS analysis (reference value: 4.9%)", "type": "functional"}, "HCT-116 [18]": {"system": "HCT-116", "test": "Induction of necroptosis in RIP3-silenced/5-AD sensitized human HCT-116 cells assessed as increase in p-RIP3 level at 3 uM preincubated with 5-AD for 3 days followed by compound addition for 24 hrs", "type": "functional, cell-based"}, "HeLa [19]": {"system": "HeLa", "test": "Induction of apoptosis in human HeLa cells assessed as viable cells at 4 uM incubated for 24 hrs by FITC/Annexin V based FACS analysis (reference value: 91%)", "type": "functional", "details": "read-out: Activity"}, "HT-29 [20]": {"system": "HT-29", "test": "Induction of apoptosis in human HT-29 cells assessed as late apoptotic cells at 6 uM incubated for 24 hrs by FITC/Annexin V based FACS analysis (reference value: 1.5%)", "type": "functional"}, "HeLa [21]": {"system": "HeLa", "test": "Induction of apoptosis in human HeLa cells assessed as necrotic cells at 2 uM incubated for 24 hrs by FITC/Annexin V based FACS analysis (reference value: 4.4%)", "type": "functional"}, "HCT-116 [22]": {"system": "HCT-116", "test": "Cytotoxicity against human HCT-116 cells incubated for 24 hrs by MTT assay", "type": "functional, cell-based", "details": "HCT-116, 24 h"}, "HCT-116 [23]": {"system": "HCT-116", "test": "Induction of ROS generation in human HCT-116 cells incubated for 24 hrs by H2DCFDA staining based flow cytometry analysis", "type": "functional, cell-based", "details": "dose 1-4 µM"}, "[24]": {"test": "Selectivity ratio of IC50 for HEK293T cells to IC50 for human HCT-116 cells", "type": "toxicity", "details": "HEK293T cells versus HCT-116 cells, read-out: Ratio IC50"}, "HCT-116 [25]": {"system": "HCT-116", "test": "Induction of apoptosis in human HCT-116 cells assessed as viable cells at 4 uM incubated for 24 hrs by FITC/Annexin V based FACS analysis (reference value: 87.1%)", "type": "functional", "details": "read-out: Activity"}, "HeLa [26]": {"system": "HeLa", "test": "Induction of apoptosis in human HeLa cells assessed as late apoptotic cells at 4 uM incubated for 24 hrs by FITC/Annexin V based FACS analysis (reference value: 1.7%)", "type": "functional"}, "HCT-116 [27]": {"system": "HCT-116", "test": "Induction of apoptosis in human HCT-116 cells assessed as late apoptotic cells at 4 uM incubated for 24 hrs by FITC/Annexin V based FACS analysis (reference value: 2.8%)", "type": "functional"}, "HCT-116 [28]": {"system": "HCT-116", "test": "Induction of apoptosis in human HCT-116 cells assessed as late apoptotic cells at 1 uM incubated for 24 hrs by FITC/Annexin V based FACS analysis (reference value: 2.8%)", "type": "functional"}, "HT-29 [29]": {"system": "HT-29", "test": "Induction of apoptosis in human HT-29 cells assessed as late apoptotic cells at 8 uM incubated for 24 hrs by FITC/Annexin V based FACS analysis (reference value: 1.5%)", "type": "functional"}, "Calf thymus DNA [30]": {"system": "Calf thymus DNA", "test": "Binding affinity to calf thymus DNA assessed as hypochromism at 1:3 DNA:compound ratio by circular dichroism method", "type": "nucleic-acid assay", "details": "Bos taurus"}, "[31]": {"test": "Selectivity ratio of IC50 for human HS-5 cells to IC50 for human HCT-116 cells"}, "HT-29 [32]": {"system": "HT-29", "test": "Induction of necroptosis in human HT-29 cells assessed as increase in p-MLKL expression at 3 to 8 uM pretreated with Z-VAD for 30 mins followed by compound addition and measured after 24 hrs by immunoblotting assay", "type": "functional, cell-based", "details": "dose 3-8 µM"}, "HT-29 [33]": {"system": "HT-29", "test": "Induction of apoptosis in human HT-29 cells assessed as early apoptotic cells at 8 uM incubated for 24 hrs by FITC/Annexin V based FACS analysis (reference value: 2.6%)", "type": "functional"}, "HT-29 [34]": {"system": "HT-29", "test": "Induction of apoptosis in human HT-29 cells assessed as late apoptotic cells at 3 uM incubated for 24 hrs by FITC/Annexin V based FACS analysis (reference value: 1.5%)", "type": "functional"}, "HT-29 [35]": {"system": "HT-29", "test": "Induction of cell death in human HT-29 cells assessed as increase in ZBP1 expression at 6 uM incubated for 24 hrs by immunoblotting analysis", "type": "functional, cell-based"}, "GC rich DNA [36]": {"system": "GC rich DNA", "test": "Binding affinity to DNA (GC)6 (unknown origin)", "type": "nucleic-acid assay"}, "HT-29 [37]": {"system": "HT-29", "test": "Induction of apoptosis in human HT-29 cells assessed as early apoptotic cells at 6 uM incubated for 24 hrs by FITC/Annexin V based FACS analysis (reference value: 2.6%)", "type": "functional"}}, "note": "Activity calls are given as the source filed them. The calls are words filed in the database; no cut-off is given here.", "data": [{"compound": "CN(C)CCCNc1nc2cc([N+](=O)[O-])ccc2nc1NCc1ccc(-c2ccccc2)cc1", "values": [{"measurement": "Activity", "setting": "HeLa [1]", "result": 59.1, "unit": "%"}, {"measurement": "Activity", "setting": "HeLa [2]", "result": "Active"}, {"measurement": "Activity", "setting": "HCT-116 [3]", "result": 8.82, "unit": "%"}, {"measurement": "inhibition", "setting": "HeLa [4]", "result": "Active"}, {"measurement": "Activity", "setting": "HCT-116 [5]", "result": 25.5, "unit": "%"}, {"measurement": "Activity", "setting": "HCT-116 [6]", "result": "Active"}, {"measurement": "Activity", "setting": "HT-29 [7]", "result": 5.7, "unit": "%"}, {"measurement": "Activity", "setting": "HT-29 [8]", "result": 12.5, "unit": "%"}, {"measurement": "Activity", "setting": "Calf thymus DNA [9]", "result": "Active"}, {"measurement": "Activity", "setting": "HeLa [10]", "result": "Active"}, {"measurement": "Activity", "setting": "GC rich DNA [11]", "result": "Active"}, {"measurement": "Activity", "setting": "HT-29 [12]", "result": "Active"}, {"measurement": "Activity", "setting": "HCT-116 [13]", "result": "Active"}, {"measurement": "Activity", "setting": "HT-29 [14]", "result": "Active"}, {"measurement": "Activity", "setting": "HCT-116 [15]", "result": 14.8, "unit": "%"}, {"measurement": "Activity", "setting": "HeLa [16]", "result": 14.2, "unit": "%"}, {"measurement": "Activity", "setting": "HCT-116 [17]", "result": 5.16, "unit": "%"}, {"measurement": "Activity", "setting": "HCT-116 [18]", "result": "Active"}, {"measurement": "viability at 4 µM", "setting": "HeLa [19]", "result": 63.8, "unit": "%"}, {"measurement": "Activity", "setting": "HT-29 [20]", "result": 7.35, "unit": "%"}, {"measurement": "Activity", "setting": "HeLa [21]", "result": 7.85, "unit": "%"}, {"measurement": "IC50", "setting": "HCT-116 [22]", "result": 1550, "unit": "nM"}, {"measurement": "Activity", "setting": "HCT-116 [23]", "result": "Dose-Dependent Effect"}, {"measurement": "selectivity ratio", "setting": "[24]", "result": 10}, {"measurement": "viability at 4 µM", "setting": "HCT-116 [25]", "result": 45.2, "unit": "%"}, {"measurement": "Activity", "setting": "HeLa [26]", "result": 14.4, "unit": "%"}, {"measurement": "Activity", "setting": "HCT-116 [27]", "result": 20.5, "unit": "%"}, {"measurement": "Activity", "setting": "HCT-116 [28]", "result": 5.84, "unit": "%"}, {"measurement": "Activity", "setting": "HT-29 [29]", "result": 17.5, "unit": "%"}, {"measurement": "Activity", "setting": "Calf thymus DNA [30]", "result": "Active"}, {"measurement": "Ratio IC50", "setting": "[31]", "result": 10}, {"measurement": "Activity", "setting": "HT-29 [32]", "result": "Active"}, {"measurement": "Activity", "setting": "HT-29 [33]", "result": 12, "unit": "%"}, {"measurement": "Activity", "setting": "HT-29 [34]", "result": 6.27, "unit": "%"}, {"measurement": "Activity", "setting": "HT-29 [35]", "result": "Active"}, {"measurement": "Activity", "setting": "GC rich DNA [36]", "result": "Active"}, {"measurement": "Activity", "setting": "HT-29 [37]", "result": 15.7, "unit": "%"}]}]}
